Measurements published in paper PMC9090415, “Discovery of small molecule inhibitors of Plasmodium falciparum apicoplast DNA polymerase” (Journal of Enzyme Inhibition and Medicinal Chemistry, 2022).

Target: P. falciparum apicoplast DNA polymerase (Pf-apPOL) (Plasmodium falciparum, UniProt Q8ILY1)
Test: Fluorescence-based high-throughput DNA polymerase assay (molecular beacon), primary screen and dose-response
Format: biochemical
Method: The HT assay employs a molecular beacon, a stem-loop DNA template with a Cy3 dye and the Black Hole Quencher on the 3′ and 5′ ends of the DNA, respectively. Pf-apPOL concentration is based on a calculated absorptivity of ε280 = 56750 M^−1 cm^−1. Reactions were carried out at 25 °C, using Corning 3575 […] (well-volume, 20 µL). Assays testing for compound inhibition composed of reaction buffer (pH 7.9 in 50 mM potassium acetate, 20 mM Tris-acetate and 10 mM magnesium acetate), Pf-apPOL (20 nM), DNA substrate (20 nM), dNTPs (6 µM), and compound (10 µM in DMSO). The DNA and nucleotide substrates (dNTPs) were at concentrations of 20 nM and 6 µM, respectively, in the assay. Pf-apPOL was incubated in the reaction buffer with dNTPs and the compound of interest (10 µM, in the assay) at 25 °C for 10 min. The DNA substrate was then added and the reaction was allowed to proceed for 90 min at 25 °C.
Each assay plate contained 16 negative controls (no Pf-apPOL, DMSO present) and 16 positive controls (Pf-apPOL present, no DMSO). The fluorescence of each well was determined using a BioTek Synergy Neo fluorescence plate reader using excitation and emission wavelengths of 555 and 570 nm, respectively.
In the above, Min is the average of fluorescence emission of the negative controls (substrate only), Max the average fluorescence emission from the positive controls (enzyme + substrate), and Test the emission from the assays in the presence of compounds (enzyme + compound + substrates). […] […] The IC50 of each compound was determined using Equation (2): (2) IC50= Vmax/(1+ (I/IC50)^n)
In the above, n measures cooperativity, with n > 1 indicating synergistic binding of more than a single molecule of the compound.
To identify apPOL inhibitors we utilised our previously developed high-throughput DNA polymerase assay. The HT assay is based on a molecular beacon DNA template that forms a stem-loop with a Cy3 dye and the Black Hole Quencher on the 3′ and 5′ ends of the DNA, respectively. DNA polymerase activity extends an annealed primer through the stem region, displacing the fluorophore from the quencher, thereby increasing its fluorescence (Figure 1(A)). The assay accurately recapitulates the kinetic behaviour of apPOL, as measured through more conventional low-throughput gel-based assays. The Z′ factor for the assay described here was 0.9 across all plates (data not shown).
Figure 1. High-throughput screening. (A) The fluorescent-based DNA polymerase assay used to screen the compound libraries. The DNA template strand is a hairpin loop with a primer annealed to the loop. The 3’ end of the primer is 11 bases away from the 6 bp duplex. Strand displacement activity of the DNA polymerase separates the Cy3 dye from the Black hole quencher leading to an increase in fluorescent signal. (B) The high-throughput assay workflow. The DNA polymerase is incubated with […] compound for 10 min prior to addition of the hairpin substrate. The reaction is quenched at 3 different time points and the fluorescent signal is measured and % inhibition is determined using the provided equation.

Chain of P. falciparum apicoplast DNA polymerase (Pf-apPOL) (Q8ILY1 entry or part of it): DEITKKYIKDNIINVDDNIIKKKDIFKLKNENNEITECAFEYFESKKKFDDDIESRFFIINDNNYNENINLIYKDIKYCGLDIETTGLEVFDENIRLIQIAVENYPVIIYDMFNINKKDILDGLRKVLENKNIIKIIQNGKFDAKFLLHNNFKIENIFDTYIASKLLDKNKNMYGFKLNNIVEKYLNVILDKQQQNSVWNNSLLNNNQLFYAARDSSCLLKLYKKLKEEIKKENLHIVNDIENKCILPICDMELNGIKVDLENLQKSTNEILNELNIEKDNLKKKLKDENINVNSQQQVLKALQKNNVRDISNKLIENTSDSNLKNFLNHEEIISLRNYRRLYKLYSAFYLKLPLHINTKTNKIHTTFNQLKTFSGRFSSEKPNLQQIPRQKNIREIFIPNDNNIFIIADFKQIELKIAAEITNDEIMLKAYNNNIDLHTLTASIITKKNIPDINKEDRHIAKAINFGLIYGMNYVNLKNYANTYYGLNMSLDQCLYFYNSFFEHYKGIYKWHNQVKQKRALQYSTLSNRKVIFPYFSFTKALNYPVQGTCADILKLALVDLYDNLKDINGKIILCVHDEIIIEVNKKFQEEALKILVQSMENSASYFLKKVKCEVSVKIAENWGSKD

Cc1ccc(CNC(=O)c2cnn3c(O)cc(CSc4ccc(Cl)cc4)nc23)cc1 [Molecule 99, Cc1ccc(cc1)CNC(=O)c1cnn2c1nc(CSc1ccc(cc1)Cl)cc2O]
DNA Pol ('DNA Pol' of the 186 hits list (screen value); 90 min, 10 µM): 67 | % inhibition Apo pol 10' (DRC-1; 10'; conc 2.5): 17.7402% | % inhibition Apo pol 10' (DRC-1; 10'; conc 5): 14.3% | % inhibition Apo pol 10' (DRC-1; 10'; conc 10): 59.9515% | % inhibition Apo pol 10' (DRC-1; 10'; conc 20): 87.9776% | % inhibition Apo pol 10' (DRC-1; 10'; conc 40): 95.4401% | % inhibition Apo pol 10' (DRC-1; 10'; conc 80): 98.3006% | % inhibition Apol 90' (DRC-1; 90'; conc 2.5): 16.0319% | % inhibition Apol 90' (DRC-1; 90'; conc 5): 10.3916% | % inhibition Apol 90' (DRC-1; 90'; conc 10): 57.1077% | % inhibition Apol 90' (DRC-1; 90'; conc 20): 85.3091% | % inhibition Apol 90' (DRC-1; 90'; conc 40): 92.0772% | % inhibition Apol 90' (DRC-1; 90'; conc 80): 96.0616% | % inhibition apPOL 180' (DRC-1; 180'; conc 2.5): 7.151% | % inhibition apPOL 180' (DRC-1; 180'; conc 5): 1.596% | % inhibition apPOL 180' (DRC-1; 180'; conc 10): 45.1863% | % inhibition apPOL 180' (DRC-1; 180'; conc 20): 80.2247% | % inhibition apPOL 180' (DRC-1; 180'; conc 40): 89.0926% | % inhibition apPOL 180' (DRC-1; 180'; conc 80): 94.6304% | % inhibition Apo pol 5' (DRC-2; 5'; conc 2.5): 29% | % inhibition Apo pol 5' (DRC-2; 5'; conc 5): 42% | % inhibition Apo pol 5' (DRC-2; 5'; conc 10): 44% | % inhibition Apo pol 5' (DRC-2; 5'; conc 20): 58% | % inhibition Apo pol 5' (DRC-2; 5'; conc 40): 67% | % inhibition Apo pol 5' (DRC-2; 5'; conc 80): 68% | % inhibition Apo pol 5' (DRC-2; 5'; concentration 80): 68% | % inhibition Apol 40' (DRC-2; 40'; conc 2.5): 32% | % inhibition Apol 40' (DRC-2; 40'; conc 5): 49% | % inhibition Apol 40' (DRC-2; 40'; conc 10): 50% | % inhibition Apol 40' (DRC-2; 40'; conc 20): 68% | % inhibition Apol 40' (DRC-2; 40'; conc 40): 78% | % inhibition Apol 40' (DRC-2; 40'; conc 80): 81% | % inhibition Apol 40' (DRC-2; 40'; concentration 5): 49% | % inhibition Apol 40' (DRC-2; 40'; concentration 20): 68% | % inhibition ApPOL 90' (DRC-2; 90'; conc 2.5): 31% | % inhibition ApPOL 90' (DRC-2; 90'; conc 5): 49% | % inhibition ApPOL 90' (DRC-2; 90'; conc 10): 49% | % inhibition ApPOL 90' (DRC-2; 90'; conc 20): 69% | % inhibition ApPOL 90' (DRC-2; 90'; conc 40): 80% | % inhibition ApPOL 90' (DRC-2; 90'; conc 80): 84% | % inhibition ApPOL 90' (DRC-2; 90'; concentration 5): 49% | % inhibition ApPOL 90' (DRC-2; 90'; concentration 10): 49% | % inhibition ApPOL 90' (DRC-2; 90'; concentration 40): 80% | % inhibition apPOL 180' (DRC-2; 180'; conc 2.5): 25% | % inhibition apPOL 180' (DRC-2; 180'; conc 5): 40% | % inhibition apPOL 180' (DRC-2; 180'; conc 10): 41% | % inhibition apPOL 180' (DRC-2; 180'; conc 20): 66% | % inhibition apPOL 180' (DRC-2; 180'; conc 40): 80% | % inhibition apPOL 180' (DRC-2; 180'; conc 80): 86% | % inhibition apPOL 180' (DRC-2; 180'; concentration 40): 80% | DNA Pol (primary screen value, "DNA Pol"; 90 min, 10 µM): 67

CCCCc1ccc(NC(=O)CSc2nc(O)c(C#N)c(C3CCCCC3)n2)c(C)c1 [Molecule 8]
IC50 (supplemental file 2, sheet IC50 nontoxic compounds; Pf-apPOL): 8.77 µM

CN(C)C=C1SCc2ccccc2C1=O [Molecule 77, CN(C=C1SCc2c(C1=O)cccc2)C]
DNA Pol ('DNA Pol'; screening value, unit not given; 90 min, 10 µM): 85 | % inhibition Apo pol 10' (DRC-1; 10'; concentration 2.5): 11.5763% | % inhibition Apo pol 10' (DRC-1; 10'; concentration 5): 16.7667% | % inhibition Apo pol 10' (DRC-1; 10'; concentration 10): 31.6418% | % inhibition Apo pol 10' (DRC-1; 10'; concentration 20): 51.9221% | % inhibition Apo pol 10' (DRC-1; 10'; concentration 40): 56.5642% | % inhibition Apo pol 10' (DRC-1; 10'; concentration 80): 84.5209% | % inhibition Apol 90' (DRC-1; 90'; concentration 2.5): 2.782% | % inhibition Apol 90' (DRC-1; 90'; concentration 5): 3.396% | % inhibition Apol 90' (DRC-1; 90'; concentration 10): 10.9684% | % inhibition Apol 90' (DRC-1; 90'; concentration 20): 24.755% | % inhibition Apol 90' (DRC-1; 90'; concentration 40): 26.7268% | % inhibition Apol 90' (DRC-1; 90'; concentration 80): 62.9199% | % inhibition apPOL 180' (DRC-1; 180'; concentration 2.5): -2.727% | % inhibition apPOL 180' (DRC-1; 180'; concentration 5): -5.416% | % inhibition apPOL 180' (DRC-1; 180'; concentration 10): 0.7299% | % inhibition apPOL 180' (DRC-1; 180'; concentration 20): 8.887% | % inhibition apPOL 180' (DRC-1; 180'; concentration 40): 10.8248% | % inhibition apPOL 180' (DRC-1; 180'; concentration 80): 43.5104% | % inhibition Apo pol 5' (DRC-2, 5', concentration 2.5): 2.65% | % inhibition Apo pol 5' (DRC-2, 5', concentration 5): 5.48% | % inhibition Apo pol 5' (DRC-2, 5', concentration 10): 20% | % inhibition Apo pol 5' (DRC-2, 5', concentration 20): 33% | % inhibition Apo pol 5' (DRC-2, 5', concentration 40): 41% | % inhibition Apo pol 5' (DRC-2, 5', concentration 80): 52% | % inhibition Apol 40' (DRC-2, 40', concentration 2.5): 2% | % inhibition Apol 40' (DRC-2, 40', concentration 5): 4% | % inhibition Apol 40' (DRC-2, 40', concentration 10): 13% | % inhibition Apol 40' (DRC-2, 40', concentration 20): 26% | % inhibition Apol 40' (DRC-2, 40', concentration 40): 34% | % inhibition Apol 40' (DRC-2, 40', concentration 80): 57% | % inhibition ApPOL 90' (DRC-2, 90', concentration 2.5): 0.807% | % inhibition ApPOL 90' (DRC-2, 90', concentration 5): 1% | % inhibition ApPOL 90' (DRC-2, 90', concentration 10): 8% | % inhibition ApPOL 90' (DRC-2, 90', concentration 20): 18% | % inhibition ApPOL 90' (DRC-2, 90', concentration 40): 26% | % inhibition ApPOL 90' (DRC-2, 90', concentration 80): 54% | % inhibition apPOL 180' (DRC-2, 180', concentration 2.5): -3% | % inhibition apPOL 180' (DRC-2, 180', concentration 5): -3.45% | % inhibition apPOL 180' (DRC-2, 180', concentration 10): 0.193% | % inhibition apPOL 180' (DRC-2, 180', concentration 20): 7.49% | % inhibition apPOL 180' (DRC-2, 180', concentration 40): 14% | % inhibition apPOL 180' (DRC-2, 180', concentration 80): 45% | % inhibition Apol 40' (conc 20 (unit not given); 40'; DRC-2): 26% | % inhibition ApPOL 90' (conc 40 (unit not given); 90'; DRC-2): 26% | DNA Pol (primary screen hit value, DNA Pol (186 hits); 90 min, 10 µM): 85
